# Data: US4157392A, “Pharmacologically active substituted 1,2,4-triazines” (Diamond Shamrock Corporation, priority 1978, dated 1979)
# Structures can show the parent of a compound that is named as a salt. Where two headings read alike, the source gives them in different places.
# What was measured:
# [1] = test system: phenylquinone writhing in mice; assay: Phenylquinone Writhing Assay (analgesia); assay type: in vivo, mouse (Carworth CF1 male mice); conditions: for responders at 70 mg/kg: 70 mg/kg oral
# Experimental: The phenylquinone writhing test was employed to evaluate analgesic activity according to the following procedure:
# Phenylquinone (phenyl-p-benzoquinone, No. 7104, Eastman Organic Chemicals) is made up as a 0.02% aqueous solution in 5% ethyl alcohol. Phenylquinone solutions are made up fresh twice daily. Standard reference agents and the test compounds are dissolved or suspended in a 0.25% methylcellulose solution. A control group consisting of ten mice (Carworth CF1 male mice) are administered the 0.02% phenylquinone solution at a dose of 0.25 ml/mouse. The mice are housed individually and observed closely for ten minutes for exhibition of writhing. The onset of writhing occurs within three minutes and 100% of the mice must writhe within ten minutes. Test compounds are administered orally to groups of ten mice. The volume given is 0.01 ml/gram of body weight. Activity can be studied at 15, 30, 60, and 120 minutes after oral administration. After the designated time interval of a dose group has elapsed, the mice are challenged with phenylquinone intraperitoneally. Complete blocking of the writhing syndrom for the ten minute observation period in any one mouse is considered a positive analgesic response for that mouse. Conversely, if any mouse writhes definitely once it is considered not to be protected. The number of mice not writhing in group multiplied by ten equals percent analgesia for that dose at that time interval.
# [2] = test system: carrageenin-induced edema in the hind paw of a rat; assay: Carrageenin Assay (carrageenin-induced edema, hind paw); assay type: in vivo, rat (male, Long Evans strain); conditions: 1 h before carrageenin, edema at 3 h, compared to phenylbutazone control values; for inhibition in vivo at 175 mg/kg: 175 mg/kg oral; for inhibition in vivo at 150 mg/kg: 150 mg/kg oral
# Experimental: The procedure employed is a modification of the method of Winter et al, Proc. Soc. Exptl. Biol. Med. 111:544 (1962). The device used for measurement of the paw volume is an adaptation of the water displacement procedure described by Adamkiewicz et al, Can. J. Biochem. Physiol. 33:332 (1955). Test compounds were administered orally, one hour prior to the intraplantar injection of 0.05 ml. of sterile 1.0 percent solution of carrageenin into the left hind paw of male rats (Long Evans strain) weighing between about 130-200 grams. At peak swelling time (3 hours) the volume of edema was calculated by differential paw volumes.
# Table I sets forth the results obtained (indicated as percent reduction of edema compared to phenylbutazone control values) at the indicated dosages for each of the identified compounds.
# [3] = Mus musculus, po, 0.5 h, 100 mg/kg oral, 30 Min., read-out: Phenylquinone Writhing Assay (% Control), percent analgesia
# [4] = Rattus norvegicus, read-out: % Reduction of Edema
# [5] = Mus musculus, po, 0.5 h, 50 mg/kg oral, 30 Min., read-out: Phenylquinone Writhing Assay (% Control), percent analgesia
# [6] = Rattus norvegicus, 200 mg/kg oral, read-out: % Reduction of Edema
# [7] = Mus musculus, po, 0.5 h, 30 Min., read-out: Phenylquinone Writhing Assay (% Control), percent analgesia
# [8] = Mus musculus, po, 1 h, 100 mg/kg oral, 60 Min, read-out: Phenylquinone Writhing Assay (% Control), percent analgesia
molecule,measurement,setting,value
"3-methoxy-5,6-di(4'-methylphenoxy)-1,2,4-triazine [Example 26]","Phenylquinone Writhing Assay (% Control), percent analgesia","[1]; 25 mg/kg oral, 15 Min.",10%
same,"Phenylquinone Writhing Assay (% Control), percent analgesia","[1]; 25 mg/kg oral, 30 Min.",10%
same,"Phenylquinone Writhing Assay (% Control), percent analgesia","[1]; 25 mg/kg oral, 60 Min",10%
same,"Phenylquinone Writhing Assay (% Control), percent analgesia","[1]; 50 mg/kg oral, 15 Min.",40%
same,"Phenylquinone Writhing Assay (% Control), percent analgesia","[1]; 50 mg/kg oral, 30 Min.",10%
same,"Phenylquinone Writhing Assay (% Control), percent analgesia","[1]; 50 mg/kg oral, 60 Min",20%
same,"Phenylquinone Writhing Assay (% Control), percent analgesia","[1]; 100 mg/kg oral, 15 Min.",20%
same,"Phenylquinone Writhing Assay (% Control), percent analgesia","[1]; 100 mg/kg oral, 30 Min.",50%
same,"Phenylquinone Writhing Assay (% Control), percent analgesia","[1]; 100 mg/kg oral, 60 Min",50%
same,% Reduction of Edema,[2]; 200 mg/kg oral,12%
"CSc1nncc(-c2ccccc2)n1 [Example 1, 3-methylthio-5-phenyl-1,2,4-triazine]",responders at 50 mg/kg,"[1]; Mus musculus, po, 0.25 h, 50 mg/kg oral, 15 Min., read-out: Phenylquinone Writhing Assay (% Control), percent analgesia",10%
same,responders at 100 mg/kg,[1]; [3],10%
same,inhibition in vivo at 175 mg/kg,[2]; [4],27%
"CSc1nncc(C(C)(C)C)n1 [Example 4, 3-methylthio-5-t-butyl-1,2,4-triazine]",responders at 100 mg/kg,[1]; [3],20%
same,inhibition in vivo at 150 mg/kg,[2]; [4],57%
"CC(C)(C)c1cnnc(NN)n1 [Example 5, 3-hydrazino-5-t-butyl-1,2,4-triazine]",responders at 25 mg/kg,"[1]; Mus musculus, po, 0.5 h, 25 mg/kg oral, 30 Min., read-out: Phenylquinone Writhing Assay (% Control), percent analgesia",20%
same,inhibition in vivo at 175 mg/kg,[2]; [4],82%
"CSc1nncc(-c2cccs2)n1 [Example 6, 3-methylthio-5-(2'-thienyl)-1,2,4-triazine]",responders at 25 mg/kg,"[1]; Mus musculus, po, 0.25 h, 25 mg/kg oral, 15 Min., read-out: Phenylquinone Writhing Assay (% Control), percent analgesia",20%
same,responders at 50 mg/kg,[1]; [5],70%
same,inhibition in vivo at 200 mg/kg,[2]; [6],51%
"COc1nncc(-c2cccc(C(F)(F)F)c2)n1 [Example 8, 3-methoxy-5-(3'-trifluoromethylphenyl)-1,2,4-triazine]",responders at 70 mg/kg,[1]; [7],10%
same,inhibition in vivo at 100 mg/kg,"[2]; Rattus norvegicus, 100 mg/kg oral, read-out: % Reduction of Edema",77%
"CSc1nncc(-c2ccco2)n1 [Example 9, 3-methylthio-5-(2-furyl)-1,2,4-triazine]",responders at 50 mg/kg,[1]; [5],50%
same,responders at 50 mg/kg,"[1]; Mus musculus, po, 1 h, 50 mg/kg oral, 60 Min, read-out: Phenylquinone Writhing Assay (% Control), percent analgesia",10%
same,inhibition in vivo at 200 mg/kg,[2]; [6],39%
"CSc1nnc(C)c(C)n1 [Example 10, 3-methylthio-5,6-dimethyl-1,2,4-triazine]",responders at 100 mg/kg,[1]; [3],70%
same,responders at 100 mg/kg,[1]; [8],20%
same,inhibition in vivo at 70 mg/kg,"[2]; Rattus norvegicus, 70 mg/kg oral, read-out: % Reduction of Edema",54%
"CSc1nnc(-c2ccccn2)c(-c2ccccn2)n1 [Example 12, 3-methylthio-5,6-(2'-pyridyl)-1,2,4-triazine]",responders at 100 mg/kg,[1]; [3],10%
same,responders at 100 mg/kg,[1]; [8],20%
same,inhibition in vivo at 200 mg/kg,[2]; [6],19%
"CSc1nncc(-c2c[nH]c3ccccc23)n1 [Example 13, 3-methylthio-5-(3'-indolyl)-1,2,4-triazine]",inhibition in vivo at 200 mg/kg,[2]; [6],71%
"CSc1nnc(-c2ccc(NC(C)=O)cc2)c(-c2ccc(NC(C)=O)cc2)n1 [Example 14, 3-methylthio-5,6-(4'-acetamidophenyl)-1,2,4-triazine]",inhibition in vivo at 200 mg/kg,[2]; [6],12%
"COc1nncc(C)n1 [Example 17, 3-methoxy-5-methyl-1,2,4-triazine]",inhibition in vivo at 200 mg/kg,[2]; [6],8%
"COc1nncc(C(C)(C)C)n1 [Example 18, 3-methoxy-5-t-butyl-1,2,4-triazine]",responders at 50 mg/kg,[1]; [5],40%
same,inhibition in vivo at 200 mg/kg,[2]; [6],64%
"COc1nncc(-c2ccco2)n1 [Example 20, 3-methoxy-5-(2'-furyl)-1,2,4-triazine]",responders at 30 mg/kg,"[1]; Mus musculus, po, 0.5 h, 30 mg/kg oral, 30 Min., read-out: Phenylquinone Writhing Assay (% Control), percent analgesia",10%
same,inhibition in vivo at 175 mg/kg,[2]; [4],70%
"CCOc1nncc(-c2ccccc2)n1 [Example 21, 3-ethoxy-5-phenyl-1,2,4-triazine]",inhibition in vivo at 200 mg/kg,[2]; [6],96%
"COc1nncc(-c2ccc3ccccc3c2)n1 [Example 22, 3-methoxy-5-(2'-naphthyl)-1,2,4-triazine]",responders at 100 mg/kg,"[1]; Mus musculus, po, 0.25 h, 100 mg/kg oral, 15 Min., read-out: Phenylquinone Writhing Assay (% Control), percent analgesia",20%
same,responders at 100 mg/kg,[1]; [3],10%
same,responders at 100 mg/kg,[1]; [8],10%
same,inhibition in vivo at 200 mg/kg,[2]; [6],7%
"COc1nnc(C)c(C)n1 [Example 23, 3-methoxy-5,6-dimethyl-1,2,4-triazine]",inhibition in vivo at 40 mg/kg,"[2]; Rattus norvegicus, 40 mg/kg oral, read-out: % Reduction of Edema",4%
"Cc1nnc(OC(C)C)nc1C [Example 24, 3-isopropoxy-5,6-dimethyl-1,2,4-triazine]",responders at 70 mg/kg,[1]; [7],10%
same,inhibition in vivo at 200 mg/kg,[2]; [6],37%
"COc1nnc(-c2ccccn2)c(-c2ccccn2)n1 [Example 27, 3-methoxy-5,6-di(2'-pyridyl)-1,2,4-triazine]",inhibition in vivo at 200 mg/kg,[2]; [6],46%
"COc1ccc(-c2cnnc(SC)n2)cc1OC [Example 33, 3-methylthio-5-(3',4'-dimethoxyphenyl)-1,2,4-triazine]",inhibition in vivo at 200 mg/kg,[2]; [6],32%
"COc1nncc(C23CC4CC(CC(C4)C2)C3)n1 [Example 36, 3-methoxy-5-(1'-adamantyl)-1,2,4-triazine]",inhibition in vivo at 150 mg/kg,[2]; [4],30%
"COc1nncc(C2CC2)n1 [Example 41, 3-methoxy-5-cyclopropyl-1,2,4-triazine]",inhibition in vivo at 200 mg/kg,[2]; [6],57%
"COc1nncc(-c2ccc(Br)cc2)n1 [Example 45, 3-methoxy-5-(4'-bromophenyl)-1,2,4-triazine]",inhibition in vivo at 200 mg/kg,[2]; [6],33%
"COc1ccc(-c2cnnc(OC)n2)cc1 [Example 46, 3-methoxy-5-(4'-methoxyphenyl)-1,2,4-triazine]",inhibition in vivo at 200 mg/kg,[2]; [6],17%
"C=CCOc1nncc(-c2ccccc2)n1 [Example 47, 3-allyloxy-5-phenyl-1,2,4-triazine]",inhibition in vivo at 200 mg/kg,[2]; [6],67%
"Clc1nnc(-c2ccccc2)c(-c2ccccc2)n1 [Example 51, 3-chloro-5,6-diphenyl-1,2,4-triazine]",inhibition in vivo at 200 mg/kg,[2]; [6],4%
"Cc1nnc(SCc2ccccc2)nc1C [Example 56, 3-benzylthio-5,6-dimethyl-1,2,4-triazine]",inhibition in vivo at 200 mg/kg,[2]; [6],52%
"CSc1nncc(-c2ccc([N+](=O)[O-])cc2)n1 [Example 57, 3-methylthio-5-(4'-nitrophenyl)-1,2,4-triazine]",inhibition in vivo at 200 mg/kg,[2]; [6],16%
"COc1nncc(-c2ccc(F)cc2F)n1 [Example 58, 3-methoxy-5-(2',4'-difluorophenyl)-1,2,4-triazine]",inhibition in vivo at 150 mg/kg,[2]; [4],36%
"CSc1nncc(-c2ccccc2)n1 [Example 59, 3-methylthio-5-phenyl-1,2,4-triazine (hydrogen iodide salt)]",inhibition in vivo at 150 mg/kg,[2]; [4],14%
"Cc1ccc(Oc2nnc(-c3ccccc3)c(-c3ccccc3)n2)cc1 [Example 60, 3-(4'-methylphenoxy)-5,6-diphenyl-1,2,4-triazine]",inhibition in vivo at 200 mg/kg,[2]; [6],18%
"CCOc1nnc(-c2ccccc2)c(-c2ccccc2)n1 [Example 61, 3-ethoxy-5,6-diphenyl-1,2,4-triazine]",inhibition in vivo at 200 mg/kg,[2]; [6],12%
"CCc1ccc(-c2cnnc(SC)n2)cc1 [Example 62, 3-methylthio-5-(4'-ethylphenyl)-1,2,4-triazine]",inhibition in vivo at 200 mg/kg,[2]; [6],33%
"COc1ccc(Oc2nncc(-c3ccccc3)n2)cc1 [Example 63, 3-(4'-methoxyphenoxy)-5-phenyl-1,2,4-triazine]",inhibition in vivo at 200 mg/kg,[2]; [6],15%
"CCCCCOc1nncc(-c2ccccc2)n1 [Example 64, 3-n-pentoxy-5-phenyl-1,2,4-triazine]",inhibition in vivo at 200 mg/kg,[2]; [6],29%
"NCC(=O)NNc1nncc(-c2ccccc2)n1 [Example 113, N2-(5-Phenyl-1,2,4-Triazin-3-yl) Glycine Hydrazide (Dihydrobromide Hydrate)]",inhibition in vivo at 50 mg/kg,"[2]; Rattus norvegicus, 50 mg/kg oral, read-out: % Reduction of Edema",32%
